# Laboratory results: US8329645B2, “Polymyxin derivatives and uses thereof” (priority 2008, dated 2012)
# What was measured:
# [1] = system: E. coli IH3080; assay: Sensitization to rifampin: growth inhibition around wells on LB plates containing rifampin; type: cell-based, Escherichia coli
# Experimental: (§1) From an overnight-grown culture of IH3080 on LB agar, a suspension of approx. 10^8 cells/ml was prepared in 0.9% NaCl. Aliquots of this suspension were then pipetted on the agar plates and the plates were gently shaken to spread the suspension evenly on the entire surface of the plate. Thereafter, the unabsorbed part of the suspension was removed by using a Pasteur pipette. After the surface had dried, small wells (diameter, 2 mm) were drilled on the plates (five wells per plate) by using a sterile sharp-edged narrow metal tube, single-use pipette tip, and vacuum suction. An alternative method used a swab to spread the inoculum. Samples (4 μl and 10 μl) of the peptide solution in 0.9% NaCl (at concentrations of 1 μg/ml and 0.1 μg/ml) were then pipetted to the wells and the sample fluids were allowed to absorb. Controls included 0.9% NaCl solution without the compound to be tested. The plates were then incubated for 18 h at 37° C. whereafter the diameters of growth inhibition zones around each well were measured; the diameter of the well itself was not reduced. Finally, the diameters were converted to surface areas of growth inhibition (in square mm).
# [2] = system: A. baumannii ATCC 19606; assay: as above; type: cell-based, Acinetobacter baumannii; details: 4 μg
# [3] = system: Pseudomonas aeruginosa ATCC 27853; assay: Growth inhibition around wells on LB agar plates; type: cell-based; details: Ps. aeruginosa ATCC 27853
# Experimental: as §1
# (§2) Direct antibacterial activity of sixteen NAB compounds against Acinetobacter baumannii ATCC 19606 and Pseudomonas aeruginosa ATCC 27853 was tested by using the susceptibility determination method described in Example 2. Five compounds (NAB7062, NAB734, NAB737, NAB739, and NAB740) had very notable activity against A. baumannii. […] The antibacterial activity of NAB739 and NAB740 were as strong as or even stronger than that of polymyxin B.
# [4] = system: Acinetobacter baumannii ATCC 19606; assay: Growth inhibition around wells on LB agar plates; type: cell-based; details: A. baumannii ATCC 19606
# Experimental: as §1, with “Samples (4 μl and 10 μl) of the peptide solution in 0.9% NaCl (at concentrations of 1 μg/ml and 0.1 μg/ml) were then pipetted to the wells and the sample fluids were allowed to absorb.” left out
# as §2
# [5] = system: E. coli IH3080; assay: Growth inhibition around wells on LB agar plates; type: cell-based, Escherichia coli
# Experimental: Peptides synthesized in Example 1, all carrying at least two (2) but not more than three (3) positive charges, were studied for their ability to inhibit the growth of E. coli. This was tested employing LB agar (LB Agar Lennox, Difco, BD, Sparks, Md., U.S.A) plates. The indicator organism E. coli IH3080 (K1:O018) was an encapsulated strain originally isolated from a neonate suffering from meningitis (Vaara et al. 1984) and obtained from National Public Health Institute, Helsinki, Finland.
# as §1, with “Samples (4 μl and 10 μl) of the peptide solution in 0.9% NaCl (at concentrations of 1 μg/ml and 0.1 μg/ml) were then pipetted to the wells and the sample fluids were allowed to absorb.” left out
# [6] = system: Ps. aeruginosa ATCC 27853; assay: Sensitization to rifampin: growth inhibition around wells on LB plates containing rifampin; type: cell-based, Pseudomonas aeruginosa; details: 4 μg
# [7] = 4 μg of compound, rifampin 0 μg/ml
# [8] = 4 μg of compound, rifampin 0.1 μg/ml
# [9] = 4 μg of compound, rifampin 1.0 μg/ml
Substance,"growth inhibition around a well in the presence of rifampin [1, 7] [square millimeters]","growth inhibition around a well in the presence of rifampin [1, 8] [square millimeters]","growth inhibition around a well in the presence of rifampin [1, 9] [square millimeters]",growth inhibition around a well in the presence of rifampin ([2]; rifampin 0 μg/ml) [square millimeters],growth inhibition around a well in the presence of rifampin ([2]; rifampin 0.1 μg/ml) [square millimeters],growth inhibition around a well in the presence of rifampin ([2]; rifampin 0.3 μg/ml) [square millimeters],growth inhibition around a well ([3]; 4 μg) [square millimeters],growth inhibition around a well ([3]; 10 μg) [square millimeters],growth inhibition around a well ([4]; 4 μg) [square millimeters],growth inhibition around a well ([4]; 10 μg) [square millimeters],growth inhibition around a well ([5]; 4 μg of compound per well) [square millimeters],growth inhibition around a well ([5]; 10 μg of compound per well) [square millimeters],growth inhibition around a well in the presence of rifampin ([6]; rifampin 0 μg/ml) [square millimeters],growth inhibition around a well in the presence of rifampin ([6]; rifampin 0.1 μg/ml) [square millimeters],growth inhibition around a well in the presence of rifampin ([6]; rifampin 0.3 μg/ml) [square millimeters],"growth inhibition around a well in the presence of rifampin ([1]; 10 μg of compound, rifampin 1.0 μg/ml) [square millimeters]"
OA-Thr-Abu-cy[Dab-Dab-DPhe-Leu-Dab-Dab-Leu-] [NAB 719],7,79,95,0,154,133,0,0,0,0,7,50,0,0,7,–
OA-Thr-Abu-cy[Dab-Lys-DPhe-Leu-Dab-Dab-Thr-] [NAB 731],0,0,5,–,–,–,–,–,–,–,0,0,–,–,–,22
DA-cy[Dab-Dab-DPhe-Leu-Dab-Dab-Thr-] [NAB 736],0,113,133,0,95,154,38,79,0,0,0,0,38,38,38,–
Polymyxin B heptapeptide [reference compound],0,0,38,–,–,–,–,–,–,–,0,0,–,–,–,–
OA-DAla-DAla-cy[Dab-Dab-DPhe-Leu-Dab-Dab-Thr-] [NAB 733],0,95,113,–,–,–,–,–,–,–,0,0,–,–,–,–
MHA-Abu-Thr-Abu-cy[Dab-Dab-DPhe-Leu-Dab-Dab-Thr-] [NAB 707],5,87,113,–,–,–,–,–,–,–,5,7,–,–,–,–
Deacylpolymyxin B [reference compound],57,79,127,–,–,–,–,–,–,–,–,113,–,–,–,–
Deacylcolistin [reference compound],79,87,127,–,–,–,–,–,–,–,–,95,–,–,–,–
OA-Abu-cy[Dab-Dab-DPhe-Leu-Dab-Dab-Thr-] [NAB 713],0,20,38,–,–,–,–,–,–,–,0,0,–,–,–,–
OA-Thr-Abu-cy[Dab-Dab-DPhe-Leu-Dab-Abu-Thr-] [NAB 709],0,0,13,–,–,–,–,–,–,–,0,0,–,–,–,–
OA-Thr-DThr-cy[Dab-Dab-DPhe-Thr-Dab-Dab-Thr-] [NAB 737],133,177,201,38,201,283,0,28,38,79,–,–,0,–,20,–
OA-Thr-Abu-cy[Dab-Abu-DPhe-Leu-Dab-Dab-Thr-] [NAB 710],0,7,13,–,–,–,–,–,–,–,0,7,–,–,–,–
MHA-Thr-Abu-cy[Dab-Dab-DPhe-Leu-Dab-Dab-Thr-] [NAB 706],5,79,133,–,–,–,–,–,–,–,5,7,–,–,–,–
OA-Thr-Dab-cy[Dab-Abu-DPhe-Leu-Dab-Dab-Thr-] [NAB 715],0,0,33,–,–,–,–,–,–,–,0,0,–,–,–,–
MHA-Dab-Thr-Dab-cy[Dab-Dab-DPhe-Leu-Abu-Abu-Thr-] [NAB 721],0,13,28,–,–,–,–,–,–,–,0,0,–,–,–,–
